Laboratory results reported in PMC5447729 (Frontiers in Pharmacology, 2017).
Read-outs that look alike come from different tables or passages of the source.

Legend:
[1] = tested on: DIO mice; assay: Three-week oral treatment of insulin-resistant DIO mice (OGTT, FBG, serum factors, organ indices, liver lipids, histology); format: in vivo; settings: for body weight and WAT: RSG 10 mg kg−1, INT131 30 mg kg−1; for serum adiponectin / serum pro-inflammatory cytokines MCP-1 and IL-6: multiplex detection; for morphology of hepatocyte and hepatic lipid content: vs vehicle-treated
Procedure: All animal experiments were performed according to procedures approved by the Animal Experimentation Ethics Committee of the Beijing Institute of Pharmacology and Toxicology for animal care, handling and termination. Eight-week-old male homozygous C57BLKS/J db/db mice were obtained from the Model Animal Research Centre of Nanjing University (Nanjing, China) and fed a standard mouse diet. Male C57BL/6 mice (4 weeks old) were obtained from the Laboratory Animal Centre of the Beijing Institute of Pharmacology and Toxicology and fed a high-fat, high-sugar diet for 16 weeks to induce diet-induced obesity (DIO). […] Compounds were dissolved in DMSO and suspended in 0.5% carboxymethylcellulose. Body weight (BW) and fasting blood glucose were recorded regularly during the treatment period. After 14 d of treatment, db/db mice were subjected to insulin tolerance tests (ITT) and fasted for 6 h prior to the intraperitoneal (i.p.) injection of 1 U kg^−1 insulin, and blood glucose was estimated at the indicated time points. […] Blood glucose was monitored at 0, 30, 60, 90, and 120 min after the oral administration of 1 g kg^−1 dextrose. […] Interscapular brown adipose tissue (iBAT), epididymal white adipose tissue (eWAT), subcutaneous inguinal white adipose tissue (sWAT), liver and skeletal muscle were excised, weighed and rapidly frozen in liquid nitrogen for subsequent gene expression and western blot analysis.
(§1) Serum triglyceride (TG), cholesterol, free fatty acid (FFA), and glucose levels were measured by using commercial kits (Nanjing Jiancheng Bioengineering Institute, Nanjing, China) according to the manufacturer's instructions. Serum adiponectin, monocyte chemotactic protein 1(MCP1), Interleukin-6 (IL-6), Receptor activator of nuclear factor kappa-B ligand (RANKL), and Adrenocorticotropic Hormone (ACTH) were quantified using a multiplex Luminex assay (Millipore/Linco Research).
To determine TG and total cholesterol levels in the liver, 50 mg of frozen tissue was homogenized with a TissueLyserII (Qiagen, Germantown, MD, USA) in 1 ml of chloroform/methanol (2:1, v/v), after which 200 μL of 0.05 M KCl was added, and the solution was centrifuged at 5,000 rpm for 10 min. The aqueous phase was removed, and the organic phase was filtered and dried by nitrogen flushing. After evaporation of the chloroform under nitrogen, lipid samples were resuspended in isopropyl alcohol, and TG and total cholesterol content were determined with enzymatic assays.
sWAT, iBAT, and liver samples were fixed, embedded in paraffin and sectioned. Sections were cut at a thickness of […] and stained with haematoxylin/eosin (HE). Liver sections as well as adipose sections from at least 3 mice per group were also stained with HE. Adipocyte (n = 100 adipocytes) diameter was measured using Image J software, and the average diameter was recorded for each animal.

[2] = tested on: PPARγ target genes; assay: Real-time PCR gene expression in tissues of treated DIO and db/db mice; format: in vivo; settings: for expression of BAT marker genes (Ucp1, Cidea, Elove3, Cox7a, Cox8b) and adipogenesis and lipogenesis genes (aP2, adiponectin, Lpl, Cd36) in BAT: more pronounced in the INT131 group; for expression of adipogenesis and fatty acid metabolism genes in sWAT and eWAT / levels of macrophage markers Cd68 and F4/80, pro-inflammatory cytokines IL-6 and TNFα and chemokine Mcp1 / Ucp1, Elove3 and aP2 gene expression in skeletal muscle: DIO and db/db mice; for expression of adipogenesis and fatty acid metabolism genes in sWAT and eWAT / levels of macrophage markers Cd68 and F4/80, pro-inflammatory cytokines IL-6 and TNFα and chemokine Mcp1: sWAT and eWAT
Procedure: Total RNA was isolated from tissues with a High-Purity Total RNA Extraction Kit (BioTeke Corporation, Beijing, China) according to the manufacturer's instructions. RNA was reverse-transcribed into cDNA with a High Capacity cDNA Reverse Transcription Kit (Transgenes Corporation, Beijing, China). Real-time PCR was carried out on an ABI 7300 Real-time PCR System (Applied Biosystems, Foster City, CA, USA) using SYBR Green PCR Master Mix (Roche Molecular Biochemicals, Mannheim, Germany). Relative gene expression levels were normalized to the β-actin gene and quantified by using the 2^−ΔΔCt method. Primer sequences are listed in (Supplementary Table 1).

[3] = tested on: PRDM16; assay: Western blot of PRDM16 protein in sWAT of treated mice; format: in vivo; settings: DIO and db/db mice
Text: To obtain tissue lysates, eWAT and sWAT were homogenized in 10% sodium dodecyl sulfate buffer containing protease and phosphatase inhibitors. An antibody targeting PR domain containing 16 (PRDM16) (Abcam) was used for western blotting. Bands were detected with ECL enhanced chemiluminescence detection reagents (Applygen, Beijing, China) and scanned with an Alpha Imager 5500 (Alpha Innotech, San Leandro, CA, USA) imaging densitometer.

[4] = RSG and INT131 concentrations in plasma and tissue after a single oral dose (UHPLC-MS/MS); format: in vivo, DIO mice; settings: for average residency time: blood concentration-time profile, pre-test, single oral gavage RSG 10 mg kg−1 or INT131 30 mg kg−1; for Tmax: C57BL/6, mouse, po, 30 mg/kg, read-out: time of peak concentration
[5] = tested on: db/db mice; assay: Three-week oral treatment of diabetic db/db mice (FBG, ITT, serum parameters, organ indices); format: in vivo
Procedure: All animal experiments were performed according to procedures approved by the Animal Experimentation Ethics Committee of the Beijing Institute of Pharmacology and Toxicology for animal care, handling and termination. Eight-week-old male homozygous C57BLKS/J db/db mice were obtained from the Model Animal Research Centre of Nanjing University (Nanjing, China) and fed a standard mouse diet. Male C57BL/6 mice (4 weeks old) were obtained from the Laboratory Animal Centre of the Beijing Institute of Pharmacology and Toxicology and fed a high-fat, high-sugar diet for 16 weeks to induce diet-induced obesity (DIO). […] Body weight (BW) and fasting blood glucose were recorded regularly during the treatment period. […] Blood glucose was monitored at 0, 30, 60, 90, and 120 min after the oral administration of 1 g kg^−1 dextrose. […]
as §1

[6] = tested on: C2C12 cells; assay: Conversion of myogenic C2C12 cells to adipocytes (gene expression); format: cell-based; settings: 10 μM for 5 d after confluence, in the same manner as RSG
[7] = tested on: mouse 3T3-L1 preadipocytes; assay: Differentiation of mouse 3T3-L1 preadipocytes; format: cell-based; settings: we and others (Motani et al., 2009)
[8] = tested on: diabetic Zucker (fa/fa) fatty rats; design: method as in prior studies in rodents; settings: 3 mg kg−1 day−1 INT131 vs 1 mg kg−1 RSG, ref prior studies in rodents; cited from earlier work
[9] = all assayed tissues, DIO mice, RSG 10 mg kg−1 oral

Row | SMILES | body weight and WAT [1] | serum adiponectin [1] | serum pro-inflammatory cytokines MCP-1 and IL-6 [1] | sizes of expanded adipocytes in the sWAT ([1]; HE staining) | morphology of hepatocyte and hepatic lipid content [1] | expression of BAT marker genes (Ucp1, Cidea, Elove3, Cox7a, Cox8b) and adipogenesis and lipogenesis genes (aP2, adiponectin, Lpl, Cd36) in BAT ([2]; DIO mice) | expression of adipogenesis and fatty acid metabolism genes in sWAT and eWAT [2] | levels of macrophage markers Cd68 and F4/80, pro-inflammatory cytokines IL-6 and TNFα and chemokine Mcp1 [2] | Ucp1, Elove3 and aP2 gene expression in skeletal muscle [2] | PRDM16 protein levels in sWAT [3] | average residency time [4] | other results
1 | CN(CCOc1ccc(CC2SC(=O)NC2=O)cc1)c1ccccn1 (stereo not shown) [RSG, 5-[[4-[2-[methyl(pyridin-2-yl)amino]ethoxy]phenyl]methyl]-1,3-thiazolidine-2,4-dione] | no impact | equal elevation | decreased levels | markedly decreased | dramatically aggravated hepatic hypertrophy and increased lipid accumulation | substantially up-regulation | similarly up-regulated | comparably reduced | enhanced | markedly increased | 4.03 ± 0.83 h | expression of adipocyte-specific genes aP2, adipsin, adiponectin, cidea and cidec in the liver ([2]; liver, DIO mice): robustly up-regulated; expression of genes of lipogenesis (Acc) and fatty acid uptake (Cd36) in the liver ([2]; liver, DIO mice): dramatically stimulated; expression of the key gluconeogenesis gene (Pepck) in the liver ([2]; liver, DIO mice): inhibited; expression of fatty acid oxidation genes Cpt1b and Pdk4 in the liver ([2]; liver, DIO mice, RSG rather than INT131): marked up-regulation; time of peak concentration (Cmax) [4, 9]: 0.5 h; tissue concentration by 12 h [4, 9]: almost negligible
2 | O=S(=O)(Nc1cc(Cl)c(Oc2cnc3ccccc3c2)c(Cl)c1)c1ccc(Cl)cc1Cl [INT131, 2,4-dichloro-N-[3,5-dichloro-4-(quinolin-3-yloxy)phenyl] benzene sulfonamide] | no impact | equal elevation | decreased levels | markedly decreased | no impact | substantially up-regulation | similarly up-regulated | comparably reduced | enhanced | markedly increased | 4.4 ± 1.17 h | body weight gain compared with RSG ([5]; 10 and 30 mg kg−1 INT131 vs 10 mg kg−1 RSG): equal body weight gains; fasting blood glucose (FBG) ([5]; INT131 10 or 30 mg kg−1 by gavage once daily, within 1 week of treatment): lowered fasting blood glucose (FBG) in a dose-dependent manner; hepatic weight ([1]; 30 mg kg−1 INT131): did not induce an increase; brown adipocyte hypertrophy (adipocyte size and area in BAT) ([1]; BAT, HE staining): more severe brown adipocyte hypertrophy; Cd36 expression in the liver ([2]; liver, DIO mice): only slightly induced an increase; expression of aP2, adiponectin and cidec in the liver ([2]; liver, DIO mice): did not induce; induction of adipsin and cidea in the liver compared with RSG ([2]; liver, DIO mice): to a lesser degree; Tmax ([4]; plasma and liver): 0.5 h; Tmax ([4]; skeletal muscle, eWAT, sWAT, BAT): 4 h; switch of myogenic cells to adipocytes (adipogenesis and myogenesis gene expression) [6]: able to switch myogenic cells to adipocytes; promoting the differentiation of preadipocytes, compared with RSG [7]: weaker effects; blood glucose lowering effects compared with RSG [8]: identical
